One experiment relates to hΔCB1. Also noted: method as in unpublished results. Conditions: HEK293 cells; ref unpublished results; cited from earlier work.
In the next experiment the test system is T1, hΔCB1 receptor.
T1 construct: hCB1 receptor with an N-terminal 102 amino acid truncated residues (hΔCB1); host or cells: cell-free expression with nanodiscs
Put plainly: Saturation binding assays (filtration and size-exclusion) with cell-free expressed hΔCB1. Also noted: species or system human. Conditions: cell-free expressed from pET15hΔCB1his6 and pET26shΔCB1his6, with nanodiscs, no T4 lysozyme. The procedure: The radioactive binding assays were performed with [^3H] CP-55,940 radioligand.
A general note: Size exclusion chromatography separates by hydrodynamic size, large species first.

Each structure is given as a SMILES string.

We go through 2 compounds from article PMC5811539, “Expression, Purification and Characterization of the Human Cannabinoid 1 Receptor” (Scientific Reports, 2018).

For the compound `CCCCCCC(C)(C)c1ccc([C@@H]2C[C@H](O)CC[C@H]2CCCO)c(O)c1` [CP-55,940], in the experiment with hΔCB1, the “effect of N-terminal 102 amino acid truncation on binding” value is “truncation does not affect the binding”.
`CCCCCCC(C)(C)c1ccc([C@@H]2C[C@H](O)CC[C@H]2CCCO)c(O)c1` [[^3H] CP-55,940]: the specific binding result in the experiment on hΔCB1 receptor was “did not show any specific binding”.
